Laboratory results as given in US20240366602A1, “COMBINATION THERAPY OF APELIN RECEPTOR AGONIST AND GLP-1 RECEPTOR AGONIST FOR TREATING A DISEASE OR CONDITION ASSOCIATED WITH WEIGHT GAIN” (BioAge Labs, Inc., priority 2023, published 2024).
Entries after “also recorded” stand apart in the source; their conditions may differ.

Legend:
[1] = 14-day IV toxicity study in the rat; type: in vivo
Protocol: (§1) The updated exposure margins considering the highest maximum exposures in rats and dogs are calculated as follows: • Maximum exposure in the rat (male) was in the 14-day IV study and at the 300 mg/kg dose, the AUClast is 1070 μg*hr/mL. • Maximum exposure in dogs occurred at the 300 mg/kg dose in the 9-month oral toxicity study and the AUClast is 1310*μg·hr/mL.

[2] = Phase 1 study BGE-105-101 Part A (SAD) pharmacokinetics after IV infusion; type: in vivo, human; conditions: for Dose-normalized AUCinf / Dose-normalized Cmax: Mean, unit assumed
Protocol: (§2) In Part A, of 24 subjects enrolled (3 SAD cohorts, 8 subjects each), a total of at least 12 subjects are ≥65 years of age (≥4 subjects in each cohort). The remaining subjects are ≥18 years old.
(§3) After a baseline period of 24 hours in the clinic, all subjects receive a LD, 1-hour infusion on Day 1. After a 48-hour wash-out period, in which PK and PK/PD data iscollected, subjects receive a 23-hour infusion (1-hour LD followed by a 22-hour maintenance dose). See FIG. 45 for the different dose levels in each SAD cohort. See e.g., Table 33 below. Part A is double-blinded. The cohorts of Part A is conducted sequentially starting with SAD cohort 1.
On Day 1 for Part A, subjects receive LD, 1-hour infusion. On Day 3, after a 48-hour washout period, subjects then receive a 23-hour infusion (1-hour LD followed by a 22-hour MD). No earlier than 24 hours after the end of infusion, subjects is discharged from the clinic on Day 5 (End of Treatment Period [EOTP]). A treatment protocol for the SAD cohorts of Part A is described below: • a. Predose assessments (vital signs and PK assessments) should be done within 30 min of the start of infusion. • b. Vital signs include diastolic and systolic blood pressure and pulse. In addition, temperature and respiratory rate should be collected on predose Day 1 and EOT Day 5. • c. Safety laboratory tests include complete blood count, clinical chemistries, and urinalysis. • d. Assessments should be done within 1 hour after the end of the LD infusions on Day 1 and Day 3. • e. AEs was recorded from the start time of the first BGE-105 or placebo study drug infusion until the end of the subject's participation in the study. At discharge from the unit, any ongoing AEs was documented in source and in EDC be followed until the event is resolved or stabilized. Any new AEs occurring after discharge will clearly note the start date and end date. • f. Study drug was administered via IV infusion as a LD, 1-hour infusion on Day 1. After a 48-hour wash-out, study drug will then be administered as a 23-hour infusion (1-hour LD followed by a 22-hour MD). • g. Continuous cardiac ECG telemetry monitoring was used, continuing through the end of dosing on Day 4. • h. Blood samples for plasma insulin and glucose monitoring should be collected in the morning, before breakfast and after fasting overnight. • i. Assessments can be done any time after 24 hours after the end of infusion and before discharge.
Relevant plasma PK parameters are derived for BGE-105 by standard noncompartmental methods and tabulated along with descriptive statistics and graphs.

[3] = test system: immobilized aged mice; conditions: immobilized aged mice (20-months-old), orally dosed, vs control vehicle; cited from earlier work
[4] = test system: healthy volunteers aged≥65 years; assay: Phase 1b Part B (MD) safety; type: in vivo, human
Protocol: (§4) The Safety Analysis Set is used for safety analysis. Subjects is analyzed based on the actual treatment received.
The double-blind, placebo-controlled clinical trial evaluated the safety and pharmacodynamics of BGE-105.

[5] = 9-month oral toxicity study in dogs; type: in vivo; conditions: dog
Protocol: as §1

[6] = test system: aged mice; conditions: aged mice (18-month-old) first injected with a cardiotoxin; cited from earlier work
[7] = test system: healthy adult subjects; assay: Phase 1 Part A (SAD) insulin resistance (HOMA-IR); type: in vivo, human; conditions: SAD cohorts 1, 2, 3; Day 3 Predose and Day 4 visits; largest decrease in cohort 3
Protocol: as §2
Biomarkers including, but not limited to changes in: • Plasma glucose • Plasma insulin • Insulin resistance (HOMA-IR)
as §3
Blood samples (4 mL) for plasma insulin and glucose monitoring are collected in the morning, before breakfast and after fasting overnight at timepoints described previously.
Data is analyzed as change from baseline within each dose cohort and treatment group. Treatment comparisons are made as a linear contrast of all treated compared to all placebo and for each individual dose cohort versus all placebo based on time-matched samples acquired during the 24-hour period on Day −1. P-values are reported uncorrected for multiplicity.

[8] = test system: healthy adult subjects; assay: Phase 1 Part A (SAD) safety and tolerability; type: in vivo, human
Protocol: as §3
On Day 1 for Part A, subjects receive LD, 1-hour infusion. On Day 3, after a 48-hour washout period, subjects then receive a 23-hour infusion (1-hour LD followed by a 22-hour MD). No earlier than 24 hours after the end of infusion, subjects is discharged from the clinic on Day 5 (End of Treatment Period [EOTP]). A treatment protocol for the SAD cohorts of Part A is described below: • a. Predose assessments (vital signs and PK assessments) should be done within 30 min of the start of infusion. • b. Vital signs include diastolic and systolic blood pressure and pulse. In addition, temperature and respiratory rate should be collected on predose Day 1 and EOT Day 5. • c. […] AEs was recorded from the start time of the first BGE-105 or placebo study drug infusion until the end of the subject's participation in the study. […]
as §4

[9] = test system: aged mice; conditions: aged mice (24-month-old) vs age-matched controls, cited from earlier work
[10] = test system: healthy older adult humans; assay: BGE-105 in immobilized human muscles, 10 days bed rest (Example 11); type: in vivo; conditions: 200 mg of BGE-105 a day
Excerpt: Two groups of healthy older adult humans (e.g., n=10 per group) who are moderately active remain in bed continuously for 10 days, except for toileting, and they consume a eucaloric diet providing the recommended dietary allowance for protein (0.8 g/kg of protein per day). […] Measurements before and after bed rest include muscle function and protein synthesis.

[11] = test system: immortalized muscle precursor cells from human patients; conditions: cited from earlier work
[12] = test system: Diet-Induced Obese (DIO) mice; assay: Pilot study of BGE-105 in aged DIO mice treated with semaglutide (Example 1); type: in vivo
Excerpt: Endpoints and measurements used to assess effects included: • Body Weight, Clinical Evaluation & Body Condition Score; • Group Food Intake, Water Intake; • Fed Glucose; • Body composition by Echo-MRI; • Baseline and endpoint grid hang tests; and • Endpoint tissue harvest.
25-month-old (aged) C57BL/6 female mice were used in this study. Diet for 25-month-old C57BL/6 mice included lean control D12450B (10 kcal % fat), or a diet induced-obesity (DIO) diet D12492 (60 kcal % fat) (Research Diets, Inc.). The study duration was 37 days. Treatment started on Day 0 and ended on Day 35-36.
Semaglutide was purchased from MCE (Cat No. HY-114118/CS-0069903)
Mice from all Groups (1-5) were measured with fed glucose, and body weight and body composition for randomization.
Body weight, group food intake, group water intake, body composition and grid hang tests were measured and monitored during the study.
On the day of necropsy, blood plasma and tissue samples were collected.

In the case of COc1cccc(OC)c1-n1c(NS(=O)(=O)[C@@H](C)[C@H](C)c2ncc(C)cn2)nnc1-c1cncc(C)c1 [BGE-105, (2S,3R)—N-(4-(2,6-dimethoxyphenyl)-5-(5-methyl-3-pyridinyl)-4H-1,2,4-triazol-3-yl)-3-(5-methyl-2-pyrimidinyl)-2-butanesulfonamide], the NOAEL [1] is reported as “maximum dose tested”, the “Dose proportionality of Cmax and AUC” value ([2]; 3 SAD cohorts, 95% confidence interval for slope includes 1) is reported as “demonstrated dose proportionality; also recorded: linear across the dose range” and the Dose-normalized AUCinf ([2]; SAD1 (60 mg/360 mg) Day 1) is reported as 0.66 µg·h/mL/mg. It also gave a Dose-normalized Cmax ([2]; SAD1 (60 mg/360 mg) Day 1) of 0.12 µg/mL/mg, a Dose-normalized AUCinf ([2]; SAD2 (120 mg/720 mg) Day 1) of 0.49 µg·h/mL/mg and a Dose-normalized Cmax ([2]; SAD2 (120 mg/720 mg) Day 1) of 0.11 µg/mL/mg. For the same compound, the Dose-normalized AUCinf ([2]; SAD3 (240 mg/1440 mg) Day 1) was 0.5 µg·h/mL/mg, the Dose-normalized Cmax ([2]; SAD3 (240 mg/1440 mg) Day 1) was 0.11 µg/mL/mg and the Muscle atrophy [3] was “significantly reduced muscle atrophy”. The Tolerability ([4]; Part B study) was “well tolerated”, the Serious adverse effects ([4]; volunteers≥65 years old, 10 days of bed rest) was “no serious adverse effects” and the NOAEL [5] was “maximum dose tested”. For the same compound, the “mRNA transcripts indicative of muscle regeneration” value [6] was “significantly higher levels of several mRNA transcripts which are indicative of muscle regeneration”, the “Percent change from baseline in HOMA-IR” value [7] was “decrease in the percent change from baseline in HOMA-IR” and the Serious adverse events ([8]; SAD cohorts Part A) was “no serious adverse events”. The Tolerability ([8]; SAD cohorts, all doses including 240 mg/1440 mg) was “well tolerated”, the Voluntary motor activity ([9]; p=0.00228) was “statistically significant increase in voluntary motor activity” and the Grip strength ([9]; p=0.04) was “statistically significant improvement in grip strength”. The “Muscle atrophy in immobilized human muscles” value [10] was “prevent or attenuate muscle atrophy”, the “Cell growth and differentiation” value [11] was “dose-dependent relationship between cell growth and differentiation, and concentration of BGE-105” and the “Muscle function, grid hang test (latency before mice fell from the grid)” value ([12]; semaglutide 100 nmol/kg, BGE-105 1.1 mg/mL, combination compared to either agent alone) was “increased muscle function”. For the same compound, the “Weight of perigonadal fat at study endpoint” value ([12]; semaglutide 100 nmol/kg, BGE-105 1.1 mg/mL, combination loss statistically significant) was “statistically insignificant loss in perigonadal fat”, the “Quadriceps weight as a percentage of total body weight at study endpoint” value ([12]; semaglutide 100 nmol/kg, BGE-105 1.1 mg/mL, vs DIO control mice) was “increased quadricep weight as a percentage of total body weight, but the increases did not achieve statistical significance” and the “neutrophil gelatinase-associated lipocalin (NGAL) level at study endpoint” value ([12]; vs DIO control mice) was “decreased plasma NGAL level”.
